Consider ten compounds from patent US9981950B2, “Triazoles as NR2B receptor inhibitors” (Janssen Pharmaceuticals, Inc., priority 2014, dated 2018).

The target in assay [1] is cloned human NR1/NR2B ion channels (Homo sapiens (Human), UniProt Q05586+Q13224). Put plainly: HNR2BC: calcium influx assay on cloned human NR1/NR2B ion channels expressed in HEK cells. As to conditions: HEK cells hNR1/NR2B, 100 μM glutamate + 100 μM glycine, 3 parameter plot. Type of assay: cell-based. As to the method:
HNR2BC: Effects of Test Articles on Cloned Human NR1/NR2B Ion Channels Expressed in Mammalian Cells
The ability of test compounds to act as an antagonist of NR1/NR2B were evaluated with a calcium influx assay (Calcium 5 Assay Kit, Molecular Devices).
For the antagonist assessment, NR1/NR2B was activated with the positive control agonist (Mg^2+-free HBPS+100 μM glutamic acid+100 μM glycine). The effect of each test article to inhibit the signal was examined after agonist stimulation and compared to the positive control antagonist (MK-801).
A HEK cell line, stable transfected with hNR1/NR2B was used. This tetracycline inducible cell line is transfected with GRIN1 (GeneBank accession number NM 007327.2) and GRIN2B (GeneBank accession number NM_000834.3.). The cells were cultured in cell culture flasks with DMEM/F12 supplemented with 10% FCS, 1% PenStrep and a selection of additional antibiotics.
Forty-Eight (48) hours before the assay the cells were plated into 96-well black well, flat clear bottom microtiter plates at a density of 50000 cells/well. Twenty-Four (24) hours later the receptor expression was induced by the addition of 1 μg/ml tetracycline in the presence of 2 mM ketamine and 200 μM 7-CKA. After 24 h of receptor induction the plates were used for the assay.
The medium was removed and the cells were loaded with 200 μl loading buffer (Molecular Devices) in Mg2+-free HBPS containing 100 μM 7-CKA at 37° C. for one (1) hour.
The test compounds were then solubilized in 100% DMSO and diluted to yield eight (8) different concentrations in 100% DMSO. A 96 well drug plate was prepared by diluting with water and glycine/glutamate to a 5-fold of final test concentration. Fluorescence intensity of the cells in the plate was measured in a FlexStation using an excitation wavelength of 485 nm and an emission wavelength of 525 nm. Twenty (20) seconds after starting the recordings the compounds together with the agonists glycine (100 μM) and glutamate (100 μM) were added into the wells and the fluorescence measured for ninety (90) seconds in summary.
The IC50 values provided in the paragraph below were determined using a 3 parameter plot.

Assay [2] concerns the target T1, rat NR1/NR2B receptor (Rattus norvegicus (Rat), UniProt P35439+Q00960). Put plainly: NR2B binding assay: inhibition of specific [3H]-Ifenprodil binding to the rat NR1/NR2B receptor. As to conditions: rat brain membranes, Hill-plot 2-parameter-model. Summed up:
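Binding ran 60 min at 4 °C on washed membranes from male Wistar rat brain without cerebellum, in 5 mM Tris/1 mM EDTA, pH 7.4, and was ended by filtration through polyethylene-imine-presoaked filters. […] CP101.606 defined nonspecific binding.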

For assay [3], the target named is T1, rat NR1/NR2B receptor. Put plainly: RRNR2BB: inhibition of specific binding to the rat NR1/NR2B receptor. Conditions: [3H]-Ifenprodil binding, rat brain membranes, Hill-plot 2-parameter-model. Summed up:
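Washed membranes from male Wistar rat forebrain (whole brain minus cerebellum) in 5 mM Tris/1 mM EDTA pH 7.4 used in ifenprodil-site binding, 60 min at 4° C. Nonspecific binding defined with […] CP101.606; bound separated by filtration on PEI-soaked filters. IC50 from Hill plot, 2-parameter model.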

For the next assay, the target named is hERG-receptor (Homo sapiens (Human), UniProt Q12809). The experiment in a line: HERGBD: inhibition of specific 3H-Dofetilide binding to the hERG-receptor. Conditions: HEK cell membranes with human ERG, Hill-plot 2-parameter-model. The essentials: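 Membranes from HEK cells stably expressing human ERG incubated 90 min at RT with 1.5 nmol/l 3H-dofetilide in 20 mM HEPES/0.1 mM KCl pH 7.2, inhibitor in 1% DMSO. Nonspecific binding with […] dofetilide; bound ligand separated by filtration and scintillation counted.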
Chain of hERG-receptor (Q12809 whole entry): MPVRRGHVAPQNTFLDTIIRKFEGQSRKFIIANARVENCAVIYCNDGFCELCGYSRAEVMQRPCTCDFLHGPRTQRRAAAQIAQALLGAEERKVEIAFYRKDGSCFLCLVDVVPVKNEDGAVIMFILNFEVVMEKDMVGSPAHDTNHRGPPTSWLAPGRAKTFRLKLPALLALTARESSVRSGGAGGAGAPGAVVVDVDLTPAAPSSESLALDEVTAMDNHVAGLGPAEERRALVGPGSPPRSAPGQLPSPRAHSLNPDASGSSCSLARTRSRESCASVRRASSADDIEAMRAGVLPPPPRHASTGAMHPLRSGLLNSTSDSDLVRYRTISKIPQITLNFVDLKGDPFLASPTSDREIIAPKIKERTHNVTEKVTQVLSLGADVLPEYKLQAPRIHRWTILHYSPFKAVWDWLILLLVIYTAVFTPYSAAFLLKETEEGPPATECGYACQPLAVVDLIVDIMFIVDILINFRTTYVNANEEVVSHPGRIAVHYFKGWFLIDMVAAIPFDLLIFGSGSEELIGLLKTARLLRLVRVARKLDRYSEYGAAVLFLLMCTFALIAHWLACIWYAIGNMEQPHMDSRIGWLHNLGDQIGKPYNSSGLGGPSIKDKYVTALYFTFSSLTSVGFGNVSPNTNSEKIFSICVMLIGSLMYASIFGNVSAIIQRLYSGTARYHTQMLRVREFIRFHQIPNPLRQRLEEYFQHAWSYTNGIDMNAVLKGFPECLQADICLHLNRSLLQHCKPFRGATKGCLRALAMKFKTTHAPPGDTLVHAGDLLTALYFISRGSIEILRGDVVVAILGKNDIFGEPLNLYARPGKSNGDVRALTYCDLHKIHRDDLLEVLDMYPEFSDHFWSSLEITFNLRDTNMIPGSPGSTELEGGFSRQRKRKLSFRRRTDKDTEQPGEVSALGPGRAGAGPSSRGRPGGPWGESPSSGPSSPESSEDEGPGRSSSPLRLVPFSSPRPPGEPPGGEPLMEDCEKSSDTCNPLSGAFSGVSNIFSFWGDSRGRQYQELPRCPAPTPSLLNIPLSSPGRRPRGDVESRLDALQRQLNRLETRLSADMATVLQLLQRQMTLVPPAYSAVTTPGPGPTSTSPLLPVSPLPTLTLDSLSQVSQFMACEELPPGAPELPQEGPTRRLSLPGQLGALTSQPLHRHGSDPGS

T1 sequence (Q00960 27-1482, other chains not shown): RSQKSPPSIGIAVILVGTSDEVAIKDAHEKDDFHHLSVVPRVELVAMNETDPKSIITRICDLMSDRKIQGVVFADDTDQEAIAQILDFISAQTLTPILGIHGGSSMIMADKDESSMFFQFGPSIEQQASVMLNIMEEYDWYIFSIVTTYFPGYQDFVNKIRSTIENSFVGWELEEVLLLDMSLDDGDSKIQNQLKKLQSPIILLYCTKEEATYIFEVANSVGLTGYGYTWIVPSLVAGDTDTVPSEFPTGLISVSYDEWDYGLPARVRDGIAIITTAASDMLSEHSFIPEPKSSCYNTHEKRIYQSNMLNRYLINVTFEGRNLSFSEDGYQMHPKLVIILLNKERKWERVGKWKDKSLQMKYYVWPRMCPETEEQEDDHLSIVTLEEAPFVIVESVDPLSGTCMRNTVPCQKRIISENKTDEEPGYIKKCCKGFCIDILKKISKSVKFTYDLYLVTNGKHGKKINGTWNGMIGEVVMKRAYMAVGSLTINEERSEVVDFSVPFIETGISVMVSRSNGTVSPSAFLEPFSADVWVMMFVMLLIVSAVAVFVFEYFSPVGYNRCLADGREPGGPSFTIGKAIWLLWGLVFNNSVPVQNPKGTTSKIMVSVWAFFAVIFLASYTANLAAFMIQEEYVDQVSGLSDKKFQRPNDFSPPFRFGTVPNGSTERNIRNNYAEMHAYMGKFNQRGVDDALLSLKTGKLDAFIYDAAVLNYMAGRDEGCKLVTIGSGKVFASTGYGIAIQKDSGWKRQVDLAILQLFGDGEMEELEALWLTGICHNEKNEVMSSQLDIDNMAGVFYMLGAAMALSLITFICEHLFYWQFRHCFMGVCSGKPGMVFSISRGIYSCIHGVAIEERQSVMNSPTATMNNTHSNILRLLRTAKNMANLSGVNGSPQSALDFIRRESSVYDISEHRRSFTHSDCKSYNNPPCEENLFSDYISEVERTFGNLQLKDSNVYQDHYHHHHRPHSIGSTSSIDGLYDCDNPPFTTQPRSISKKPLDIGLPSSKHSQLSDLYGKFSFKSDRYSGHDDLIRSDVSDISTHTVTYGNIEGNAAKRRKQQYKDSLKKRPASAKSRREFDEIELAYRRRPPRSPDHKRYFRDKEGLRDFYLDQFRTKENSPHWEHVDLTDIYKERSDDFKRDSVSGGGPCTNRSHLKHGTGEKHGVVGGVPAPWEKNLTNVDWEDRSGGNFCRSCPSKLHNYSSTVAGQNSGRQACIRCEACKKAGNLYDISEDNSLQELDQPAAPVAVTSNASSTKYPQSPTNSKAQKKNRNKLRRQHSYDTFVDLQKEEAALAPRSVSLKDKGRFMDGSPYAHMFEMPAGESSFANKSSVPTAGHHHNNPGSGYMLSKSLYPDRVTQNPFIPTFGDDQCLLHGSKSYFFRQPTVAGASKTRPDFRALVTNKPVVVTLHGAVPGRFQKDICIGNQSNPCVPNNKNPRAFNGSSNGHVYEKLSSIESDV
Chain of cloned human NR1/NR2B ion channels (Q13224 27-1484, other chains not shown): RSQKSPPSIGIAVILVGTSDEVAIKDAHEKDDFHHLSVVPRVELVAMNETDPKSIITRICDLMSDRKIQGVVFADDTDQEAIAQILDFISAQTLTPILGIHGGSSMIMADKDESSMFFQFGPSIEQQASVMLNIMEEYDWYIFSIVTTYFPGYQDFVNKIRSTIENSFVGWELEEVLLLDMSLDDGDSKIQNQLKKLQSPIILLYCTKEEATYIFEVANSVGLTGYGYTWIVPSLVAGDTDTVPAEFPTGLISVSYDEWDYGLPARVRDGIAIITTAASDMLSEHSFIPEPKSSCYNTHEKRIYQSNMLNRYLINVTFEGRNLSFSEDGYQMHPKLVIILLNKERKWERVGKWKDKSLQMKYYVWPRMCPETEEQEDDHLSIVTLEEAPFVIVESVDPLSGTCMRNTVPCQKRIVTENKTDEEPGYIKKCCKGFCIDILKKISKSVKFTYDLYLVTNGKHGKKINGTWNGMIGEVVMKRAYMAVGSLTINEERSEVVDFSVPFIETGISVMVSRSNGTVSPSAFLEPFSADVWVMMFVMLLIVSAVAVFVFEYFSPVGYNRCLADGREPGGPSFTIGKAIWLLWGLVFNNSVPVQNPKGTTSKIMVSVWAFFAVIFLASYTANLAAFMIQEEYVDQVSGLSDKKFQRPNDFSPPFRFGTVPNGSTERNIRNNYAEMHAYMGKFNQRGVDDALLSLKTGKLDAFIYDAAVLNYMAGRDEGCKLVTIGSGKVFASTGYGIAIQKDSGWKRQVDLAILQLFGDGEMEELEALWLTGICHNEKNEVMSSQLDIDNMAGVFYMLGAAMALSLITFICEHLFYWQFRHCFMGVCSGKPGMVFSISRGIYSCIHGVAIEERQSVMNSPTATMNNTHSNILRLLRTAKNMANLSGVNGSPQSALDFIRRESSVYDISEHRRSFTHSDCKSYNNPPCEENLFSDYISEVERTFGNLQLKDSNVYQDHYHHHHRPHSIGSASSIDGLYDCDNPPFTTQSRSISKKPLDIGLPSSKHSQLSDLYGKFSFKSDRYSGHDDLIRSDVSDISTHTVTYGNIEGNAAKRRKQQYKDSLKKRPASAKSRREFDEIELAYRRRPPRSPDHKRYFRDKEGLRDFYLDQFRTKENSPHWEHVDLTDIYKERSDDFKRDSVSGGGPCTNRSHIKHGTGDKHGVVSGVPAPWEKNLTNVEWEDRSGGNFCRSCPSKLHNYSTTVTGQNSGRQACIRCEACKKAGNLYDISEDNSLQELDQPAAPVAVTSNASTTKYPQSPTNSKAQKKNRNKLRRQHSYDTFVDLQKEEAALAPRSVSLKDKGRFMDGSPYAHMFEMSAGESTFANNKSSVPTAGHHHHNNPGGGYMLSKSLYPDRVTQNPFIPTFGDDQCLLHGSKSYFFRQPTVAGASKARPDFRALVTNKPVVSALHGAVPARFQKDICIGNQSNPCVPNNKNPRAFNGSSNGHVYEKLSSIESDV

For `CCc1nccn1Cc1cn(-c2ccc(F)c(Cl)c2)nn1` [Example 42, 1-(3-Chloro-4-fluoro-phenyl)-4-(2-ethyl-imidazol-1-ylmethyl)-1H-[1,2,3]triazole], the IC50 in assay [1] came to 3170 nM.

Regarding `CC(C)c1nccn1Cc1cn(-c2ccc(Cl)c(OC(F)F)c2)nn1` [Example 97, 1-(4-Chloro-3-difluoromethoxy-phenyl)-4-(2-isopropyl-imidazol-1-ylmethyl)-1H-[1,2,3]triazole], in assay [1], the IC50 worked out at 580 nM.

Regarding `Cc1nccn1Cc1cn(-c2ccc(F)c(OC(F)F)c2)nn1` [Example 100, 1-(3-Difluoromethoxy-4-fluoro-phenyl)-4-(2-methyl-imidazol-1-ylmethyl)-1H-[1,2,3]triazole], the IC50 on rat NR1/NR2B receptor [2] turned out to be 1.9 nM; on rat NR1/NR2B receptor [3] it was 1.9 nM; on hERG-receptor, 12800 nM.

In the case of `Cc1nccn1Cc1cn(-c2cc(F)cc(C(F)F)c2)nn1` [Example 102], the results for the IC50 at rat NR1/NR2B receptor [2], at rat NR1/NR2B receptor [3] and at hERG-receptor were 25.9 nM, 25.9 nM and 16800 nM, respectively.

As for `Cc1nccn1Cc1cn(-c2ccc(F)c(C(C)(F)F)c2)nn1` [Example 105, 1-[3-(1,1-Difluoro-ethyl)-4-fluoro-phenyl]-4-(2-methyl-imidazol-1-ylmethyl)-1H-[1,2,3]triazole], the values for the IC50 at rat NR1/NR2B receptor [2], at rat NR1/NR2B receptor [3] and on hERG-receptor were 4.05 nM, 4.05 nM and 73100 nM, respectively.

With `Nc1nccn1Cc1cn(-c2cc(F)cc(C(F)F)c2)nn1` [Example 111, 4-(2-amino-imidazol-1-ylmethyl)-1-(3-fluoro-5-difluoromethyl-phenyl)-1H-[1,2,3]triazole], the IC50 stood at 3420 nM in assay [1] and 3290 nM at hERG-receptor.

`Fc1ccc(-n2cc(Cc3cc[nH]n3)nn2)cc1C(F)F` [Example 115, 1-(3-difluoromethyl-4-fluoro-phenyl)-4-(1H-pyrazol-3-ylmethyl)-1H-[1,2,3]triazole]: the IC50 in assay [1] amounted to 10500 nM.

For `Cc1ccc(C(=O)c2nccn2Cc2cn(-c3ccc(Cl)cc3)nn2)cc1` [Example 116, [1-[[1-(4-chlorophenyl)triazol-4-yl]methyl]imidazol-2-yl]-(p-tolyl)methanone], the IC50 in assay [1] is 22400 nM; at rat NR1/NR2B receptor [3], greater than 5000 nM.

Regarding `Cc1nc2ccccc2n1Cc1cn(-c2ccc(Cl)c(Cl)c2)nn1` [Example 117, 1-[[1-(3,4-dichlorophenyl)triazol-4-yl]methyl]-2-methyl-benzimidazole], the results for the IC50 at rat NR1/NR2B receptor [2], on rat NR1/NR2B receptor [3] and at hERG-receptor were 141 nM, 141 nM and 3090 nM, respectively.

In the case of `OCCc1nccn1Cn1cc(-c2ccc(S(F)(F)(F)(F)F)cc2)nn1` [Example 118, 2-(1-((1-(4-(pentafluoro-l6-sulfanyl)phenyl)-1H-1,2,3-triazol-4-yl)methyl)-1H-imidazol-2-yl)ethan-1-ol], the IC50 turned out to be 263 nM at rat NR1/NR2B receptor [2], 263 nM on rat NR1/NR2B receptor [3] and 12300 nM on hERG-receptor.
